# Experimental data taken from US20230099027A1 (priority 2020, published 2023).
# Tested on: H1N1 Neth09
# Format: cell-based, influenza A virus
substance,measurement,value
PEG8,virucidal result,did not give virucidal results
